Experiments:
human orexin-2 receptor = human orexin-2 receptor (Homo sapiens (Human), UniProt O43614); test: FLIPR Ca2+ Flux Assay, orexin-2 receptor (hOX2R FLIPR); format: cell-based; settings: CHO cells expressing the human orexin-2 receptor; agonist 70 pM Ala-6,12 human orexin-A
Method in brief: (§1)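 Calcium flux in CHO cells bearing rat orexin-1 or human orexin-2 receptor; antagonist 5 min, then 70 pM Ala-6,12 orexin-A. Buffer HBSS, 20 mM HEPES, 0.1% BSA, 2.5 mM probenecid, pH7.4. Read-out: peak fluorescence, IC50.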

[1] = molecular target: hOXIR (orexin-1 receptor) (Homo sapiens, UniProt O43613); test: FLIPR Ca2+ Flux Assay, orexin-1 receptor (hOXIR FLIPR); format: cell-based; settings: CHO cells expressing the orexin-1 receptor (method text: rat; table head: hOXIR); agonist 70 pM Ala-6,12 human orexin-A
Method in brief: as §1

human orexin-2 receptor, sequence (O43614 whole entry): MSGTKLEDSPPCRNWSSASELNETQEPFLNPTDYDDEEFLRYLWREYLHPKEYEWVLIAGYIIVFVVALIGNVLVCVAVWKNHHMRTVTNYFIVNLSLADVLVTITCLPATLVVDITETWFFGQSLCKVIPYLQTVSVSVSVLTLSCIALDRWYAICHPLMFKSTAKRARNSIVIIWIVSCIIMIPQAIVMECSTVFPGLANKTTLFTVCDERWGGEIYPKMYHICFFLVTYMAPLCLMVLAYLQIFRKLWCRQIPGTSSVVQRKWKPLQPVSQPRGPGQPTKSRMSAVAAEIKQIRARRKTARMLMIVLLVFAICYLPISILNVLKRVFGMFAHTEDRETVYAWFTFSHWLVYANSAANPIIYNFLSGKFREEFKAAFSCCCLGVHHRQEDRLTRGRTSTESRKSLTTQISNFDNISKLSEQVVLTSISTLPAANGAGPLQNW

Structure (SMILES)	IC50 (human orexin-2 receptor) [µM]	IC50 [1] [µM]
Cc1nn([C@@H]2CC[C@@H](C)N(C(=O)c3ccccc3-n3nccn3)C2)cc1C(C)(C)O [Example 107, 2-{3-Methyl-1-[(3R,6R)-6-methyl-1-{[2-(2H-1,2,3-triazol-2-yl)phenyl]carbonyl}piperidin-3-yl]-1H-pyrazol-4-yl}propan-2-ol]	0.0138	0.339
Cc1c(C(C)(C)O)cnn1[C@@H]1CC[C@@H](C)N(C(=O)c2ccccc2-n2nccn2)C1 [Example 108, 2-{5-Methyl-1-[(3R,6R)-6-methyl-1-{[2-(2H-1,2,3-triazol-2-yl)phenyl]carbonyl}piperidin-3-yl]-1H-pyrazol-4-yl}propan-2-ol]	0.0732	3.37
